The values that follow are results of earlier work, collected in patent US20150030666A1, “ADHESIVE SKIN PATCH” (KM TRANSDERM LTD., priority 2011, published 2015).

The conditions of this series: in vivo, po.

For `O=C(O[C@H]1CN2CCC1CC2)N1CCc2ccccc2[C@@H]1c1ccccc1` [solifenacin succinate, (3R)-1-azabicyclo[2.2.2]oct-3-yl(1S)-1-phenyl-3,4-dihydroisoquinoline-2(1H)-carboxylate], the half-life in blood entry is listed as “about 50 hr”.
